Assay results reported in patent US20240335395A1, “COMPOSITIONS AND METHODS FOR PREVENTING AND/OR TREATING DISEASE ASSOCIATED WITH IL-23 EXPRESSION” (ALLSPIM, priority 2021, published 2024).

Tests used:
[1] = test system: laser-induced choroidal neovascularization (CNV); test: Laser-induced CNV in rats, CNV surface on lectin-labelled RPE-choroid flat-mounts; assay type: in vivo, rat; conditions: intravitreous injection
Protocol: Animals. All experiments were performed in accordance with the European Communities Council Directive 86/609/EEC and approved by local ethical committees (#2541-2015110210279792 v3). Six- to eight-week-old male Long Evans rats from the Janvier Breeding Center (Le Genest-Saint-Isle, France) were used to create a rat model of choroidal neovascularization (CNV) used as a model of human wet macular degeneration. Laser-induced CNV. After anesthesia and dilation of the pupils, coverslips were positioned on the cornea as a contact glass. […] Animals were sacrificed at 7 days (n=6 per group- and at 16 days (n=6 per group). RPE-choroid flat-mounts and CNV quantifications. Two days after FA examination (time necessary for fluorescein elimination), eyes were enucleated, fixed in 4% PFA for 15 min at room temperature and sectioned at the limbus; the cornea and lens were discarded. The retina was separated from the RPE-choroid complex. Eight radial incisions were made on the RPE-choroid, which was then flat-mounted and post-fixed with acetone for 15 min at −20° C. After washing with 0.1% Triton x100 in PBS, FITC-GSL I-Isolectin B4 (1:200, Vector, AbCys, Paris, France) was applied over night at […] Images of the CNV were captured with a digital video camera coupled to a computer system on an Olympus fluorescence microscope. […]

IL-23 [2] = test: IL-23 gene expression in RA-patient synovial cells (RT-qPCR); assay type: cell-based, human; conditions: 2 h
Protocol: Synovial fluid was freshly collected from 20 patients with rheumatoid arthritis (RA) by arthrocentesis. At two hours after treatment or not with 2,4-D, RA-patient synovial cells were directly lysed using TRIzol reagent (Invitrogen, USA) followed by RNA extraction according to the manufacturer's protocol. Finally, RNA was dissolved in 10 μL DEPC-treated water, quantified on a NanoDrop 2000 spectrophotometer (Thermo Scientific Inc., USA), and reverse-transcribed using the Super Script III First-Strand Synthesis System for RT-PCR kit (Thermo Scientific, USA) according to the manufacturer's protocol. PCR was performed in duplicate using SYBR Green qPCR master mix (Takara Biomedical Technology Co., Ltd, Dalian, China) on an ABI 7500 Real-Time PCR System (Thermo, USA). The cycling program was as follows: denaturation at 95° C. for 15 s, 40 cycles of 95° C. for 15 s and extension at 60° C. for 60 s, followed by melt curve generation. The ΔΔCT method was used to quantify relative mRNA levels as described in Example 1 above. The primer sequences specific for human IL-17 genes (hu-IL-17 Forward: 5′-[…]-3′; hu-IL-17 Reverse: 5′-GGCACTTTGCCTCCCAGAT-3′) (SEQ ID NOs 8 and 9, respectively) and IL-23 (see Example 1, above) were used.

IL-23 [3] = test: IL-23 production (ELISA) in LPS-stimulated THP-1 cells, 2,4-D versus other chalcones, Example 2; assay type: cell-based, human; conditions: LPS-stimulated THP-1
Description: Molecules tested. Natural 2,4-D, isolated and purified from Chloranthus spicatus (purity HPLC≥98%, Cat. No.: 129742-43-2), was purchased from BOC Science (Shirley, NY). Synthetic 2,4-D (purity HPLC≥98%) was obtained from YIWEI Biotech (Shanghai, China). 2′-hydroxychalcone (2′-HC, purity HPLC≥98%, Cat. No.: 42224-53-3), 4-hydroxychlcone (4-HC, purity HPLC≥98%, Cat. No.: 20426-12-4), 2′,2-dihydroxychalcone (2′,2-DHC, purity HPLC≥98%, Cat. No.: IDF00045_ALDRICH), 2′,3-dihydroxychalcone (2′,3-DHC, purity HPLC≥98%, Cat No.: IDF00047_ALDRICH), 2′,4-dihydroxychalcone (2′,4-DHC, purity HPLC≥98%, Cat. No.: PH011685_ALDRICH), 2′,5′-dihydroxychalcone (2′,5′-DHC, purity HPLC≥98%, No.: IDF00046-1G), and 2′,4′,4-trihydroxychalcone (2′,4′4-THC, purity HPLC≥98%, No.: 38986_SIAL) were purchased from Sigma. 2′,4′-dihydroxychalcone (2′,4′-DHC, purity HPLC≥98%, Cat. No. AB151736) was purchased from abcr GmbH (Karlsruhe, Germany). Isobavachalcone (IBC), 4′-hydroxy-2′6′-dimethoxychalcone (HMC), 2-trifluoromethyl-2′-methoxychalcone (TFM) and Hydroxysafflor yellow A (HYA) were also tested.
Cell culture. THP-1 cells were cultured in RPMI 1640 culture medium (Gibco) supplemented with 10% fetal bovine serum (FBS; Gibco, UK.), 0.05 mM 2-mercaptoethanol, and 1% penicillin/streptomycin. Cells were used in exponential growth phase, with culture medium being replaced with fresh medium 1 day prior to the experiment. The following day, THP-1 cells were plated into 24-well culture plates with a cell density about 800,000 cells/mL and 2 mL per well. 10 ng/mL LPS was used to stimulate the THP-1 cells. RPMI 1640 medium containing 10% FBS and 1% P/S was used as a normal control (NC). 10 mM stock solutions of compounds in DMSO were diluted to 20 μM with complete culture medium just before use. Experiments were performed in quadruplicate.
Enzyme linked immune-sorbent assay (ELISA). At 24 hours, after centrifugation at 300 g for 10 min., 0.5 mL of supernatant was collected and stored at −80° C. until use. IL-23 levels were determined in culture supernatants as described in Example 1.

## COc1cc(O)c(OC)c(O)c1C(=O)/C=C/c1ccccc1 [2,4-D, 2′,4′-dihydroxy-3′,6′-dimethoxychalcone]
[1]
  CNV size (surface of lectin positive labelling): significantly reduced
IL-23 [2]; 1 μg/ml
  decrease of IL-23 expression: 8 fold
IL-23 [2]; 5 μg/ml
  inhibition of IL-23 expression: 65 fold
IL-23 [3]
  inhibition of IL-23, superiority over remaining compounds: 7,5- to 18 fold
